Patent US20210177879A1, “VITAMIN D RECEPTOR AGONIST” (Guanghzou University of Chinese Medicine, priority 2018, published 2021)

Test system: transplanted tumor of MB-231 pancreatic cancer cells
Assay: Transplanted tumor of MB-231 pancreatic cancer cells in nude mice
Assay type: in vivo
Details: 2 mg/kg in combination with 5-fluorouracil at half dose (20 mg/kg), once a day; effect comparable to 5-fluorouracil alone 40 mg/kg
Description: The SMB-231 pancreatic cancer cells were thawed, and cultured in a changed medium after 24 hours. Medium preparation method: 6% serum, 1% of a bispecific antibody+a 1640 basal medium. After grown to confluent, the cells were digested and subcultured to expand the number of cells. When reached the required amount, the cells were digested by trypsin, centrifuged, and resuspended in PBS to prepare a cell suspension of 1×10^8 cells/ml. A part of the cell suspension was added with the monotropein, desacetyl asperulosidic acid, asperuloside, and asperulosidic acid respectively, and the inhibition rate (%) of tumor cell proliferation by each of these different compounds was examined.
Male adult nude mice, which had the body weights of 20-24 g, were purchased from Guangdong Medical Laboratory Animal Center. After 7 days of adaptive feeding of the animals, except for the blank group, the remaining animals were injected with 0.2 ml of a SMB-231 pancreatic cancer cell suspension in PBS at ventrodorsal and scapula sites of them, the response conditions of the animals were observed, and the body weights of the animals were determined once a week. After 2 weeks of observation, the animals were grouped into the following groups according to tumor size: a blank group; a model group; a 5-fluorouracil control group (5-Full, 40 mg/kg); monotropein+5-fluorouracil (2 mg/kg monotropein+20 mg/kg 5-fluorouracil), desacetyl asperulosidic acid+5-fluorouracil (2 mg/kg desacetyl asperulosidic acid+20 mg/kg 5-fluorouracil), asperuloside+5-fluorouracil (2 mg/kg asperuloside+20 mg/kg 5-fluorouracil), asperulosidic acid+5-fluorouracil (2 mg/kg asperulosidic acid+20 mg/kg 5-fluorouracil), these groups being labeled as: Mo, As, Aa, Da. Each group included 8 animals; and administration was conducted once a day.
The status, death conditions, and eating and drinking conditions of the animals were observed daily. The body weights of the animals were determined once a week and the tumor size of the animals was determined every 4 days. The tumor volume of the animals was determined by using a vernier caliper. After 1 month of administration, the animals were sacrificed after blood was sampled from the orbit thereof, and the tumor was separated and weighed.

SMILES: O=C(O)C1=CO[C@@H](O[C@@H]2O[C@H](CO)[C@@H](O)[C@H](O)[C@H]2O)[C@H]2[C@@H]1C=C[C@]2(O)CO [monotropein]
- tumor proliferation in SMB-231 tumor-bearing mice: significantly inhibit tumor proliferation
